Assay [1] has as its system hypophysectomized (HYPOX) SPF Sprague Dawley rats. Put plainly: Body weight gain in hypophysectomized rats. Format: in vivo, rat. The procedure:
(§1) Method: This study was performed in order to test and compare the effect of Lys26 CNP-38 PEG4×10 kDa conjugate, Somatropin and combinations of the two compounds in an animal model relevant for investigating treatment of growth deficiency. The Somatropin (human growth hormone, hGH) was a United States Pharmacopeia (USP) Reference Standard and was prepared according to supplier instructions. Lys26 CNP-38 PEG4×10 kDa conjugate and Somatropin were administered alone or in combination via subcutaneous injection to hypophysectomized (HYPOX) SPF Sprague Dawley rats for a total of 29 days. The animals were dosed daily with Somatropin or vehicle, and weekly with Lys26 CNP-38 PEG4×10 kDa conjugate (at two different sites in animals receiving both test items on days 1, 8, 15, 22, and 29). The dose levels employed for Lys26 CNP-38 PEG4×10 kDa conjugate were 0.3, 1.0, and 2.0 mg/kg. Somatropin was employed at […] with a concentration of 10 μg/mL (˜8-10 μg/kg with animal weights between 100-120 g during the study period). The animals were weighed predose and once daily during the dosing period. […] Animals were sacrificed on day 30, and femur and tibia were trimmed and their length measured using a caliper. Hereafter, right tibia was fixed and processed for histologic and histomorphometric analysis.

The test system is the same in assay [2]. Put plainly: Femur and tibia length measured with a caliper in hypophysectomized rats. The format is in vivo, rat. The conditions noted are these: Somatropin alone, daily s.c.; relative to the vehicle group; day 30. As for the experimental part:
as §1

For assay [3] the test system is unchanged. Kind of assay: Histologic evaluation of HE stained right tibia, width of the endochondral/ossification zone. The format is in vivo, rat. As for the experimental part:
as §1

For assay [4] the test system is unchanged. Kind of assay: Histomorphometric measurement of proliferative zone width of right tibia growth plate. The format is in vivo, rat. The conditions noted are these: Somatropin alone versus control (vehicle). As for the experimental part:
as §1

The subject of another assay is Fgfr3Y367C/+ mice. Kind of assay: Achondroplasia phenotype in Fgfr3Y367C/+ mice (whole body autoradiography, bone lengths). Format: in vivo. As to conditions: dosing from day 1 of birth for 15 days; single agent or combination.

The source of these data is patent US12667604B2, “Combination therapy with controlled-release CNP agonists” (ASCENDIS PHARMA GROWTH DISORDERS A/S, priority 2016, dated 2026).

Procedure for Fgfr3Y367C/+ mice: Animals are sacrificed on day 16 and tissues fixed for histologic or immunohistochemical analysis. Either compound is administered alone or in combination. The dose levels employed for Rosuvastatin are 0.25, 0.5, 1.0 and 2.0 mg/kg. […] The ratios ranges from 1:1-24:1
Reversion of phenotypical features are assessed using whole body autoradiography. The animals are placed on their right side, with the left hind leg more forward than the right, to allow both hind legs to be visible on the X-ray. Bones obtained at necropsy include femur, tibia, humerus, ulna, lumbar vertebra segment L 4-6 and are measured with a caliper.

For the compound “Somatropin: human growth hormone, hGH; United States Pharmacopeia (USP) Reference Standard”, the “Average BWG (g) (±SE)” value in assay [1] (body weight gain day 0 (predose) to day 28, Somatropin alone, daily s.c. 10 μL/animal of 10 μg/mL (~8-10 μg/kg)) is reported as 4.44 (±0.94) g. Further, the “body weight gain” value in assay [1] (compared to vehicle treated group) is reported as “Significant body weight gains”. For the same compound, in assay [2], the “increase in femur length” value is −0.04±0.08 mm and the “increase in tibia length” value is listed as 0.55±0.17 mm. In assay [3] (Somatropin alone), the “Number of animals, width of endochondral/ossification zone Normal (grade 0)” value amounted to 9. Moreover, the “width of the endochondral/ossification zone, histologic evaluation” value in assay [3] (compared to vehicle or to conjugate alone) is given as “did not differ from background (vehicle)”. Besides, the “width of the proliferative zone” value in assay [4] is listed as “not different from control (vehicle) animals”.

Consider `CC(C)c1nc(N(C)S(C)(=O)=O)nc(-c2ccc(F)cc2)c1/C=C/[C@@H](O)C[C@@H](O)CC(=O)O` [Rosuvastatin], for which the “reversal of the achondroplasic phenotype” value with Fgfr3Y367C/+ mice is given as “beneficial effect on reversal of the achondroplasic phenotype is observed”.
